Patent EP0365210A1, “Hydroxamic acid derivatives” (KYOWA HAKKO KOGYO CO., LTD., priority 1988, dated 1990)

Biological target: T1, leucocyte 5-lipoxygenase (Rattus norvegicus, UniProt P12527)
T1 construct: rat basophilic leukemia cells (RBL-1, ATCC No. CRL 1378) were used as the source of 5-lipoxygenase; host or cells: RBL-1 rat basophilic leukemia cells
T1 sequence (P12527 1-673): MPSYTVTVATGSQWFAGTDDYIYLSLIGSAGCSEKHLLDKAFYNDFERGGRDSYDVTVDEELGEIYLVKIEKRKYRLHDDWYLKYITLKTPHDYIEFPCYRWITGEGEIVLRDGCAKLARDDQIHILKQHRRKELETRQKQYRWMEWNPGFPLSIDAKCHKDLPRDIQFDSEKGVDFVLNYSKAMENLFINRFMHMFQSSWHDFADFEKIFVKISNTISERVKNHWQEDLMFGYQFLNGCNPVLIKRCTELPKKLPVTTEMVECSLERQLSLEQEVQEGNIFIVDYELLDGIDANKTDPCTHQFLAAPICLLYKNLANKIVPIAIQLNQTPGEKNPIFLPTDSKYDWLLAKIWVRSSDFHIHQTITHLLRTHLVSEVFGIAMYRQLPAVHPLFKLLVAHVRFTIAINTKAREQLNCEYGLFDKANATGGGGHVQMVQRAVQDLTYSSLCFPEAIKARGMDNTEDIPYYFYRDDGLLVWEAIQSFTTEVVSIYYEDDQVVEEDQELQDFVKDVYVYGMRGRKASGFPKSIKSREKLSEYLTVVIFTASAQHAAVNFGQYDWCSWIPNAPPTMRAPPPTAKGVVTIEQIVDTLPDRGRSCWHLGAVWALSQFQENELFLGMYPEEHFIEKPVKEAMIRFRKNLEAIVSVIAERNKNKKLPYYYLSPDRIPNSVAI
Assay: Inhibitory activity against leucocyte 5-lipoxygenase (5-HETE formation by HPLC, RBL-1 cells as enzyme source)
Type: biochemical
Settings: rat basophilic leukemia cells (RBL-1) as source of 5-lipoxygenase; arachidonic acid substrate; 37°C; pH 7.4
Procedure: a) Method for determining the inhibitory activity against leucocyte 5-lipoxygenase:
Lipoxygenase activity was determined by a modification of the method of B.A. Jakschik et al. [Biochem. Biophys. Res. Commun., 95, 103 (1980)]. That is, rat basophilic leukemia cells (RBL-1, ATCC No. CRL 1378) were used as the source of 5-lipoxygenase. The cells were contacted with a test compound in 60 µl of 0.17 M Trishydrochloride buffer (pH 7.4) containing […] calcium chloride, 3.3 mM adenosine triphosphate and 1 mM glutathione at 37°C for 5 minutes. Then,-50 µl of 60 µM arachidonic acid was added to the reaction mixture and the mixture was allowed to stand at 37° C for 5 minutes. To the mixture were added 200 µl of methanol and 13-hydroxylinoleic acid as the internal standard, followed by thorough shaking. The mixture was allowed to stand at -20 C for 30 minutes and then centrifuged at 12000 r.p.m. for 10 minutes. After the supernatant was evaporated to dryness in a stream of nitrogen, 200 µl of 75% aqueous methanol was added to the residue. The resulting solution (100 µl) was subjected to high performance liquid chromatography to quantitatively determine 5-HETE (5-hydroxyeicosatetraenoic acid). The absorption at 234 nm was measured with a UV absorption monitor and the amount of 5-HETE produced was determined from the peak area corrected by the peak of the internal standard. The test was carried out using the test compound at various concentrations and the concentration that inhibits 50% enzyme activity was determined as the inhibitory activity.

IC50 [nM] | SMILES
25 | CCCCCCCCCCCC(=O)N(O)CCCCCN1CCCC1=O [Compound 6]
300 | CCCCCCCCCCCN(O)C(=O)c1ccccc1 [Compound 12]
20 | CCCCCCCCCCCC(=O)N(O)CCCN1C(=O)CCC1=O [Compound 3]
20 | CCCCCCCCCCCN(O)C(=O)CCCCCN1C(=O)CCC1=O [Compound 2]
36 | CCCCCCCCCCCC(=O)N(O)CCCCCN1C(=O)CCCC1=O [Compound 5]
40 | CCCCCCCCCCCC(=O)N(O)CCCCCN1C(=O)c2ccccc2C1=O [Compound 4]
44 | CCCCCCCCCCCN(O)C(=O)CCC [Compound 11]
38 | CCCCCCCCCCCN(O)C(=O)CCC(=O)OC [Compound 7]
34 | CCCCCCCCCCCN(O)C(C)=O [Compound 10]
20 | CCCCCCCCCCCC(=O)N(O)CCCCCCCN1C(=O)CCC1=O [Compound 1]
